Measurements reported in ChEMBL document CHEMBL1129446, “Hydroxamic acid-based bisubstrate analog inhibitors of Ras farnesyl protein transferase” (J Med Chem, 1996).

Each molecule was assayed against Protein farnesyltransferase (Sus scrofa) (assay: In vitro activity against Protein farnesyltransferase). Settings: read-out: I50.

IC50 [µM] | SMILES
30.5 | CSCC[C@@H](NC(=O)[C@@H](NC(=O)[C@@H](NC(=O)CC(=O)N(O)C/C=C(\C)CC/C=C(\C)CCC=C(C)C)C(C)C)C(C)C)C(=O)O
0.33 | CSCC[C@H](NC(=O)[C@@H](NC(=O)[C@@H](NC(=O)CC(=O)N(O)C/C=C(\C)CC/C=C(\C)CCC=C(C)C)C(C)C)C(C)C)C(=O)O
5.6 | CSCC[C@H](NC(=O)[C@@H](NC(=O)[C@@H](NC(=O)CC(=O)N(O)CC/C=C(\C)CC/C=C(\C)CCC=C(C)C)C(C)C)C(C)C)C(=O)O

Continued, molecule first:

SMILES | IC50 [µM]
CC(C)C[C@H](NC(=O)[C@@H](NC(=O)[C@@H](N)CC(=O)N(C)O)C(C)C)C(=O)N[C@@H](CO)C(=O)O | > 360
CC(C)C[C@H](NC(=O)[C@@H](NC(=O)[C@H](CC(=O)N(C)O)NC(=O)OC(C)(C)C)C(C)C)C(=O)N[C@@H](CO)C(=O)O | > 360
CC(C)C[C@H](NC(=O)[C@@H](NC(=O)[C@H](CC(=O)N(C)OCc1ccccc1)NC(=O)OC(C)(C)C)C(C)C)C(=O)N[C@@H](CO)C(=O)O | > 360
CC(C)=CCC/C(C)=C/CC/C(C)=C/CN(O)C(=O)CCC(=O)N[C@H](C(=O)N[C@@H](CC(C)C)C(=O)N[C@@H](CO)C(=O)O)C(C)C | 42.5
CC(C)C[C@H](NC(=O)[C@@H](NC(=O)[C@@H](N)CC(=O)N(C)OCc1ccccc1)C(C)C)C(=O)N[C@@H](CO)C(=O)O | > 360
